Holding throughout (assay type): in vivo
In one data set the test system is Zea mays. The data set can be described thus: Post-emergence crop plant compatibility. Particulars: application rate 5 g/ha. Here is the method:
(§1) Seeds of monocotyledonous and dicotyledonous weeds and crop plants were placed in sandy loam in plastic or wood-fiber pots, covered with soil and cultivated in a greenhouse under controlled growth conditions. 2 to 3 weeks after sowing, the test plants were treated at the one-leaf stage. The compounds of the invention, formulated in the form of wettable powders (WP) or as emulsion concentrates (EC), were then sprayed onto the green parts of the plants as aqueous suspension or emulsion with addition of 0.5% additive at a water application rate of […] (converted). After the test plants had been kept in the greenhouse under optimum growth conditions for about 3 weeks, the activity of the preparations was rated visually in comparison to untreated controls. For example, 100% activity=the plants have died, 0% activity=like control plants.
(§2) Here, the observed effects on selected crop plants are stated in comparison to the untreated controls (values in %).

Another data set deals with Glycine max. The data set can be described thus: Post-emergence crop plant compatibility. Here is the method:
as §1, §2

The next data set relates to Oryza sativa. The data set can be described thus: Post-emergence crop plant compatibility. As to the method: as §1, §2
Another data set deals with Brassica napus. The data set can be described thus: Post-emergence crop plant compatibility. As to the method:
as §1, §2

The test system of a further data set is Triticum aestivum. The data set can be described thus: Post-emergence crop plant compatibility. As to the method: as §1, §2
Another data set deals with Abutilon theophrasti. The data set can be described thus: Post-emergence herbicidal action. Particulars: Abutilon theophrasti, 504 h, read-out: Abutilon theophrasti (efficacy in %); for pest or weed control at 20 g/ha: application rate 20 g/ha. As to the method:
as §1, with “plants. Tables A1 to A14 below show the effects of selected compounds of the general formula (I) according to Tables I.1 to I.34 on various harmful plants and at an application rate corresponding to 20 g/ha and less, which were obtained by the experimental procedure mentioned above.” for “plants.”

The next data set has as its system Setaria viridis. The data set can be described thus: Post-emergence herbicidal action. Particulars: 504 h, read-out: Setaria viridis (efficacy in %); for pest or weed control at 5 g/ha: application rate 5 g/ha; for pest or weed control at 20 g/ha: application rate 20 g/ha. As to the method:
as §1, with “plants. Tables A1 to A14 below show the effects of selected compounds of the general formula (I) according to Tables I.1 to I.34 on various harmful plants and at an application rate corresponding to 20 g/ha and less, which were obtained by the experimental procedure mentioned above.” for “plants.”

The test system of a further data set is Viola tricolor. The data set can be described thus: Post-emergence herbicidal action. Particulars: Viola tricolor, 504 h, read-out: Viola tricolor (efficacy in %); for pest or weed control at 5 g/ha: application rate 5 g/ha. Here is the method: as §1, with “plants. Tables A1 to A14 below show the effects of selected compounds of the general formula (I) according to Tables I.1 to I.34 on various harmful plants and at an application rate corresponding to 20 g/ha and less, which were obtained by the experimental procedure mentioned above.” for “plants.”

The next data set has as its system Veronica persica. The data set can be described thus: Post-emergence herbicidal action. Particulars: Veronica persica, 504 h, read-out: Veronica persica (efficacy in %); for pest or weed control at 5 g/ha: application rate 5 g/ha; for pest or weed control at 20 g/ha: application rate 20 g/ha. Here is the method: as §1, with “plants. Tables A1 to A14 below show the effects of selected compounds of the general formula (I) according to Tables I.1 to I.34 on various harmful plants and at an application rate corresponding to 20 g/ha and less, which were obtained by the experimental procedure mentioned above.” for “plants.”

The test system of another data set is Polygonum convolvulus. The data set can be described thus: Post-emergence herbicidal action. Particulars: Fallopia convolvulus, 504 h, read-out: Polygonum convolvulus (efficacy in %); for pest or weed control at 5 g/ha: application rate 5 g/ha; for pest or weed control at 20 g/ha: application rate 20 g/ha. Here is the method: as §1, with “plants. Tables A1 to A14 below show the effects of selected compounds of the general formula (I) according to Tables I.1 to I.34 on various harmful plants and at an application rate corresponding to 20 g/ha and less, which were obtained by the experimental procedure mentioned above.” for “plants.”

The test system of the next data set is Pharbitis purpurea. The data set can be described thus: Post-emergence herbicidal action. Particulars: Ipomoea purpurea, 504 h, read-out: Pharbitis purpurea (efficacy in %); for pest or weed control at 5 g/ha: application rate 5 g/ha; for pest or weed control at 20 g/ha: application rate 20 g/ha. Here is the method:
as §1, with “plants. Tables A1 to A14 below show the effects of selected compounds of the general formula (I) according to Tables I.1 to I.34 on various harmful plants and at an application rate corresponding to 20 g/ha and less, which were obtained by the experimental procedure mentioned above.” for “plants.”

In another data set the test system is Echinochloa crus-galli. The data set can be described thus: Post-emergence herbicidal action. Particulars: Echinochloa crus-galli, 504 h, read-out: Echinochloa crus-galli (efficacy in %); for pest or weed control at 20 g/ha: application rate 20 g/ha. As to the method: as §1, with “plants. Tables A1 to A14 below show the effects of selected compounds of the general formula (I) according to Tables I.1 to I.34 on various harmful plants and at an application rate corresponding to 20 g/ha and less, which were obtained by the experimental procedure mentioned above.” for “plants.”

In another data set the test system is Amaranthus retroflexus. The data set can be described thus: Post-emergence herbicidal action. Particulars: Amaranthus retroflexus, 504 h, read-out: Amaranthus retroflexus (efficacy in %); for pest or weed control at 5 g/ha: application rate 5 g/ha. As to the method:
as §1, with “plants. Tables A1 to A14 below show the effects of selected compounds of the general formula (I) according to Tables I.1 to I.34 on various harmful plants and at an application rate corresponding to 20 g/ha and less, which were obtained by the experimental procedure mentioned above.” for “plants.”

The test system of a further data set is Stellaria media. The data set can be described thus: Post-emergence herbicidal action. Here is the method: as §1, with “plants. Tables A1 to A14 below show the effects of selected compounds of the general formula (I) according to Tables I.1 to I.34 on various harmful plants and at an application rate corresponding to 20 g/ha and less, which were obtained by the experimental procedure mentioned above.” for “plants.”

The test system of another data set is Alopecurus myosuroides. The data set can be described thus: Post-emergence herbicidal action. Particulars: application rate 20 g/ha. Here is the method: as §1, with “plants. Tables A1 to A14 below show the effects of selected compounds of the general formula (I) according to Tables I.1 to I.34 on various harmful plants and at an application rate corresponding to 20 g/ha and less, which were obtained by the experimental procedure mentioned above.” for “plants.”

The next data set deals with Matricaria inodora. The data set can be described thus: Post-emergence herbicidal action. Particulars: Tripleurospermum inodorum, 504 h, read-out: Matricaria inodora (efficacy in %). Here is the method:
as §1, with “plants. Tables A1 to A14 below show the effects of selected compounds of the general formula (I) according to Tables I.1 to I.34 on various harmful plants and at an application rate corresponding to 20 g/ha and less, which were obtained by the experimental procedure mentioned above.” for “plants.”

The subject of another data set is Avena fatua. The data set can be described thus: Post-emergence herbicidal action. Particulars: application rate 20 g/ha. As to the method: as §1, with “plants. Tables A1 to A14 below show the effects of selected compounds of the general formula (I) according to Tables I.1 to I.34 on various harmful plants and at an application rate corresponding to 20 g/ha and less, which were obtained by the experimental procedure mentioned above.” for “plants.”

The test system of another data set is Digitaria sanguinalis. The data set can be described thus: Post-emergence herbicidal action. Particulars: 504 h, read-out: Digitaria sanguinalis (efficacy in %). Here is the method: as §1, with “plants. Tables A1 to A14 below show the effects of selected compounds of the general formula (I) according to Tables I.1 to I.34 on various harmful plants and at an application rate corresponding to 20 g/ha and less, which were obtained by the experimental procedure mentioned above.” for “plants.”

The test system of another data set is Lolium rigidum. The data set can be described thus: Post-emergence herbicidal action. Particulars: application rate 20 g/ha. Here is the method: as §1, with “plants. Tables A1 to A14 below show the effects of selected compounds of the general formula (I) according to Tables I.1 to I.34 on various harmful plants and at an application rate corresponding to 20 g/ha and less, which were obtained by the experimental procedure mentioned above.” for “plants.”

Turning to `Nn1c(C(F)(F)F)cc(=O)n(-c2cc(Sc3cccnc3OCCC(=O)OCc3ccccc3)c(Cl)cc2F)c1=O` [I.5-457, Benzyl 3-{[3-({5-[3-amino-2,6-dioxo-4-(trifluoromethyl)-3,6-dihydropyrimidin-1(2H)-yl]-2-chloro-4-fluorophenyl}sulfanyl)pyridin-2-yl]oxy}propanoate], in the data set with Zea mays, the “Zea mays (efficacy in %)” value was 20%. In addition, the “Glycine max (efficacy in %)” value in the data set on Glycine max (application rate 1.25 g/ha) worked out at 0%; with Glycine max (application rate 5 g/ha) it was 10%. The results for the “Oryza sativa (efficacy in %)” value with Oryza sativa (application rate 1.25 g/ha) and in the data set with Oryza sativa (application rate 5 g/ha) were 0% and 10%, respectively. For the same molecule, the results for the “Brassica napus (efficacy in %)” value in the data set with Brassica napus (application rate 1.25 g/ha) and in the data set with Brassica napus (application rate 5 g/ha) were 0% and 10%, respectively. The “Triticum aestivum (efficacy in %)” value in the data set with Triticum aestivum (application rate 5 g/ha) is listed as 20%. Further, the pest or weed control at 20 g/ha was 80% in the data set with Abutilon theophrasti; 100% with Setaria viridis; 100% with Veronica persica; 100% in the data set on Polygonum convolvulus; 90% in the data set on Pharbitis purpurea; 80% in the data set with Echinochloa crus-galli. Also, the pest or weed control at 5 g/ha with Setaria viridis was 100%; in the data set on Viola tricolor, 100%; in the data set on Veronica persica, 100%; in the data set with Polygonum convolvulus it was 90%; in the data set on Pharbitis purpurea, 90%; with Amaranthus retroflexus, 100%. In addition, the “Stellaria media (efficacy in %)” value in the data set with Stellaria media (application rate 5 g/ha) was found to be 80%; in the data set on Stellaria media (application rate 20 g/ha), 100%.
Regarding `CCOCCOC(=O)COc1ncccc1Sc1cc(-n2c(=O)cc(C(F)(F)F)n(N)c2=O)c(F)cc1Cl` [I.1-2, 2-Ethoxyethyl {[3-({5-[3-amino-2,6-dioxo-4-(trifluoromethyl)-3,6-dihydropyrimidin-1(2H)-yl]-2-chloro-4-fluorophenyl}sulfanyl)pyridin-2-yl]oxy}acetate], the “Oryza sativa (efficacy in %)” value in the data set on Oryza sativa (application rate 1.25 g/ha) is recorded as 0%; with Oryza sativa (application rate 5 g/ha), 10%. Besides, in the data set with Triticum aestivum (application rate 1.25 g/ha), the “Triticum aestivum (efficacy in %)” value is given as 0%. In addition, the “Alopecurus myosuroides (efficacy in %)” value in the data set with Alopecurus myosuroides amounted to 100%. For the same molecule, the pest or weed control at 5 g/ha with Abutilon theophrasti (application rate 5 g/ha), in the data set with Matricaria inodora (application rate 5 g/ha), in the data set on Setaria viridis, with Digitaria sanguinalis (application rate 5 g/ha), with Viola tricolor and with Veronica persica was 100% throughout. Besides, the pest or weed control at 5 g/ha was 100% in the data set with Polygonum convolvulus, 100% in the data set with Pharbitis purpurea, 90% in the data set with Echinochloa crus-galli (application rate 5 g/ha) and 100% in the data set on Amaranthus retroflexus. Further, the pest or weed control at 20 g/ha in the data set with Abutilon theophrasti, in the data set on Matricaria inodora (application rate 20 g/ha), in the data set with Setaria viridis, in the data set on Digitaria sanguinalis (application rate 20 g/ha), in the data set on Viola tricolor (application rate 20 g/ha) and in the data set with Veronica persica was 100% each time. Also, the pest or weed control at 20 g/ha with Polygonum convolvulus, with Pharbitis purpurea, in the data set with Echinochloa crus-galli and with Amaranthus retroflexus (application rate 20 g/ha) was 100% throughout. Further, the “Avena fatua (efficacy in %)” value with Avena fatua is on record as 80%. In addition, in the data set with Lolium rigidum, the “Lolium rigidum (efficacy in %)” value is 80%.

For the origin of these results see patent US20220274954A1, “SUBSTITUTED N-PHENYL-N-AMINOUARCILS AND SALTS THEREOF AND USE THEREOF AS HERBICIDAL AGENTS” (Bayer Aktiengesellschaft, priority 2019, published 2022).
